Data reported in the Kinase Knowledgebase extract (Sharma et al. 2016).

Columns and labels:
Assay in all cases: Enzyme Assay
PIK3CA (human) = PIK3CA (human) (UniProt P42336)
PIK3CB (Human) = PIK3CB (Human) (UniProt P42338)
PIK3CD (Human) = PIK3CD (Human) (UniProt O00329)
PIK3CG (human) = PIK3CG (human) (UniProt P48736)
Chain of PIK3CG (human) (P48736 whole entry, looked up): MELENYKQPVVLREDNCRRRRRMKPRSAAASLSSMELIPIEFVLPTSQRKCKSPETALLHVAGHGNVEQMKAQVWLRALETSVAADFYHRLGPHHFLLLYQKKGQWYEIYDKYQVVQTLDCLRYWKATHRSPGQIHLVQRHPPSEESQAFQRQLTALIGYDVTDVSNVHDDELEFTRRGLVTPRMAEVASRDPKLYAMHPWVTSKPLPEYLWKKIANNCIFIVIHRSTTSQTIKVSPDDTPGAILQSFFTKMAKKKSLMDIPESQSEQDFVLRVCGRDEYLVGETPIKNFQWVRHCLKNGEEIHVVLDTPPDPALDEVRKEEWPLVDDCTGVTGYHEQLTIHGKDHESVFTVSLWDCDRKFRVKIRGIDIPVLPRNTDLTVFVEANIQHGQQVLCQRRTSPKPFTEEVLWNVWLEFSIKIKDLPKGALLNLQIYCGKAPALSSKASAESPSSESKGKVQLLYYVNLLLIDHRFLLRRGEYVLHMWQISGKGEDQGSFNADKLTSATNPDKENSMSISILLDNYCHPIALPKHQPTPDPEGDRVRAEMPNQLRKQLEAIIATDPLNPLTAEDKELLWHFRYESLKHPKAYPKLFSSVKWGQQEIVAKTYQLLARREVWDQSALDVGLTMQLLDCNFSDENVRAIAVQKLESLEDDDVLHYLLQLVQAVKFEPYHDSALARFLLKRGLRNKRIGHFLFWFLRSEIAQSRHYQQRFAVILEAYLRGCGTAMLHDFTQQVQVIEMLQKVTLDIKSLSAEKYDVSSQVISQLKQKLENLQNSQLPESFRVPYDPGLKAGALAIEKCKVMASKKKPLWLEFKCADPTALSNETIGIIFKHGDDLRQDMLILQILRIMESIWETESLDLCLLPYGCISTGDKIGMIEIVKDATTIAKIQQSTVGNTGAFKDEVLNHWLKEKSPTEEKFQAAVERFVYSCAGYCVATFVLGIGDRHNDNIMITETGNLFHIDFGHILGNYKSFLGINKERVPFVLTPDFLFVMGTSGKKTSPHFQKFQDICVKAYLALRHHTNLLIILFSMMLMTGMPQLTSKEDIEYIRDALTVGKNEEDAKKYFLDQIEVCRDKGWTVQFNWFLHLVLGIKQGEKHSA

Chain of PIK3CA (human) (P42336 whole entry, looked up): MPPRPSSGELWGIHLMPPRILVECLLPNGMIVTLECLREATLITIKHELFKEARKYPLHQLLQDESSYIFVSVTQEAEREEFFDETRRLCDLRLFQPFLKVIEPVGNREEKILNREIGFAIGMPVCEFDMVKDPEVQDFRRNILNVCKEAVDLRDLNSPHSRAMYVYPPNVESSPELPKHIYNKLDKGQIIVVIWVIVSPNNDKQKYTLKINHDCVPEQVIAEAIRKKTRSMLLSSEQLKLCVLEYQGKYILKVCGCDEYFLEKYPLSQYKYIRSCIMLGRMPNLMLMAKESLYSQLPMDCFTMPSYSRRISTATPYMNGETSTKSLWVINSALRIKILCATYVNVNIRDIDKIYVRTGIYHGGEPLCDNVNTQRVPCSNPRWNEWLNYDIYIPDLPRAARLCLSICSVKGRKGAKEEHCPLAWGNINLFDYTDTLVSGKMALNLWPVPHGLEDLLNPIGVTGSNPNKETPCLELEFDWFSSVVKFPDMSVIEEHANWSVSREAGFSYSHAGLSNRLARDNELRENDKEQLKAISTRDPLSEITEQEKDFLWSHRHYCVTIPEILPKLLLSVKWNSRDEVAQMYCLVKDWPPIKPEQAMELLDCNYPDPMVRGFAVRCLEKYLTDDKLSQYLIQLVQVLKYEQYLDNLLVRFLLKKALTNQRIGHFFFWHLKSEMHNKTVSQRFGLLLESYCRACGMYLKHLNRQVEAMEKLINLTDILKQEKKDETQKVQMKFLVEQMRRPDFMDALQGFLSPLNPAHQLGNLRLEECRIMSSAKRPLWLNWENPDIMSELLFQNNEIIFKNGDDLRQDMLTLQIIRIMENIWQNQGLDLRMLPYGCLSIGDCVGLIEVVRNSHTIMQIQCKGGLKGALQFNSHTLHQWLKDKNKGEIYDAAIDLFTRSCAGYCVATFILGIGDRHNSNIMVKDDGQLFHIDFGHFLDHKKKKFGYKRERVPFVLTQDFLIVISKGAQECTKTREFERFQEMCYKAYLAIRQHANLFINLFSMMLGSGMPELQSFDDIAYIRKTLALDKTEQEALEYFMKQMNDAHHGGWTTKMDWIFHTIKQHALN
Chain of PIK3CD (Human) (O00329 whole entry, looked up): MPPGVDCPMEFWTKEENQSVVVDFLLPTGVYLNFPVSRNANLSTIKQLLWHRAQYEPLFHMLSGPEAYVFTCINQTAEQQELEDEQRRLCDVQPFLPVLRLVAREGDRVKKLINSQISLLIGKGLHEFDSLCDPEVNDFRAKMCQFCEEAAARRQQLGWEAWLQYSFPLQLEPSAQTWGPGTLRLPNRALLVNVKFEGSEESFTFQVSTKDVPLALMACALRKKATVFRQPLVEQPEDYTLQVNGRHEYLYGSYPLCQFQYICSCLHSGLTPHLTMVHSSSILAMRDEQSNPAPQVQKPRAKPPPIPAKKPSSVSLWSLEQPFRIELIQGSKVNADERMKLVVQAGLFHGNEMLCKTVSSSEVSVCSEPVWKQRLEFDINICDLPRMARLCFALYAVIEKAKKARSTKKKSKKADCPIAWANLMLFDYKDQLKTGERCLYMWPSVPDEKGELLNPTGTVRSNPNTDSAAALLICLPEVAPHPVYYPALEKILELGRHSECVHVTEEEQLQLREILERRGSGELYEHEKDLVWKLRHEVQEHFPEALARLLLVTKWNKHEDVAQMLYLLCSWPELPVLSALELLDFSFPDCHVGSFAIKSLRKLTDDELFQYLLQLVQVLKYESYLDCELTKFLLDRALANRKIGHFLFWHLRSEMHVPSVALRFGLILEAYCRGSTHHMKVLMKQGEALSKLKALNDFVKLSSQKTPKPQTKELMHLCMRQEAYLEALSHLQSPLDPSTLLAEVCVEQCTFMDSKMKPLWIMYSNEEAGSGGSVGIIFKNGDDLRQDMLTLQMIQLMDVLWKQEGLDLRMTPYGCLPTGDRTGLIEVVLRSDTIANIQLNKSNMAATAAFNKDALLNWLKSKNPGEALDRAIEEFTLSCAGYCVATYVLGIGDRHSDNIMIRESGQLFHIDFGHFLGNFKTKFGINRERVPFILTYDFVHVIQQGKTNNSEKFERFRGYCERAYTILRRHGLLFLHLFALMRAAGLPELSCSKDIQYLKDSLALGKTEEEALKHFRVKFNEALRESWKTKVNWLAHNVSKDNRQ
Chain of PIK3CB (Human) (P42338 whole entry, looked up): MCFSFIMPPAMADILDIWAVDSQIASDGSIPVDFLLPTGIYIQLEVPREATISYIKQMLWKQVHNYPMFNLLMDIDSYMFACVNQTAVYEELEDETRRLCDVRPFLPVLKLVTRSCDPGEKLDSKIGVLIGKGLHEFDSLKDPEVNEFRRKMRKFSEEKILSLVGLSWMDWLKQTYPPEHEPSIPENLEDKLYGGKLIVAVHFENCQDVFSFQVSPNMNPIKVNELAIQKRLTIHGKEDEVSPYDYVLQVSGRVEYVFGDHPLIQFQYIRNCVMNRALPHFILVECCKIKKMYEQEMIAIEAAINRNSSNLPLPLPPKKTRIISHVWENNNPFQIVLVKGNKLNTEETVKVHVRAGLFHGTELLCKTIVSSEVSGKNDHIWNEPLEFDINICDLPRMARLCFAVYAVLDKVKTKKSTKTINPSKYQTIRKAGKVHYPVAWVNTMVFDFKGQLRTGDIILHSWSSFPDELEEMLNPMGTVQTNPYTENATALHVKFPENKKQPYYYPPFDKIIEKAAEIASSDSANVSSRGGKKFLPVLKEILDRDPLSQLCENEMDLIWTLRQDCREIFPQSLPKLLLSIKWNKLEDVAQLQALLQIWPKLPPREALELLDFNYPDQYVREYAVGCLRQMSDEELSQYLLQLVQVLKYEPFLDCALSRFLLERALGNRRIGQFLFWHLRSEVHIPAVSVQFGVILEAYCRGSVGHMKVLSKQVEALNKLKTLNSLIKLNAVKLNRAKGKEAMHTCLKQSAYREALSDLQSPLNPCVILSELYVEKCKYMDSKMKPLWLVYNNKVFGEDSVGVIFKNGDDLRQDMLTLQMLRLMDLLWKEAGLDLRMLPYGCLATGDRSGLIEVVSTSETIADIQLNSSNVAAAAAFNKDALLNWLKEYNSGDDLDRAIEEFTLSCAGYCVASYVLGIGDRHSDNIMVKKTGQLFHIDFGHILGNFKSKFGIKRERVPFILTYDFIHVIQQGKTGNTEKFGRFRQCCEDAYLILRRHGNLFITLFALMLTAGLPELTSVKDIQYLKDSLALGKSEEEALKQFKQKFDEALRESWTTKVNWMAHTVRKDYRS

Structure (SMILES): Cc1cccc2cc([C@H](C)Nc3nc(N)ncc3F)n(-c3ccccc3)c(=O)c12
- IC50 (PIK3CA (human)): > 10000 nM
- IC50 (PIK3CB (Human)): > 10000 nM
- IC50 (PIK3CD (Human)): < 100 nM
- IC50 (PIK3CG (human)): 100 to 1000 nM

Structure (SMILES): Cc1cccc2cc(Cn3nc(C#C[C@@H](C)O)c4c(N)ncnc43)n(-c3ccccc3F)c(=O)c12
- IC50 (PIK3CA (human)): > 10000 nM
- IC50 (PIK3CB (Human)): > 10000 nM
- IC50 (PIK3CG (human)): 100 to 1000 nM

Structure (SMILES): C=C(C)c1nn(Cc2cc3cccc(C)c3c(=O)n2-c2ccccc2)c2ncnc(N)c12
- IC50 (PIK3CA (human)): > 10000 nM
- IC50 (PIK3CD (Human)): < 100 nM
- IC50 (PIK3CG (human)): 100 to 1000 nM

Structure (SMILES): Cc1cccc2cc(Cn3nc(I)c4c(N)ncnc43)n(-c3ccccc3Cl)c(=O)c12
- IC50 (PIK3CB (Human)): > 10000 nM
- IC50 (PIK3CG (human)): 100 to 1000 nM

Structure (SMILES): CNc1ncc(Cl)c(N[C@@H](C)c2cc3cccc(C)c3c(=O)n2-c2ccccc2)n1
- IC50 (PIK3CA (human)): > 10000 nM
- IC50 (PIK3CD (Human)): 100 to 1000 nM
- IC50 (PIK3CG (human)): 100 to 1000 nM

Structure (SMILES): C=Cc1nn(Cc2cc3cccc(C)c3c(=O)n2-c2ccccc2)c2ncnc(N)c12
- IC50 (PIK3CD (Human)): < 100 nM
- IC50 (PIK3CG (human)): 100 to 1000 nM

Structure (SMILES): Cc1cccc2cc(C(C)Nc3ncnc4[nH]cnc34)n(C3CCOCC3)c(=O)c12 (configuration not stated)
- IC50 (PIK3CD (Human)): < 100 nM
- IC50 (PIK3CG (human)): 100 to 1000 nM

Structure (SMILES): Cc1ccccc1-n1c(Cn2nc(-c3cnn(C)c3)c3c(N)ncnc32)cc2cccc(C)c2c1=O
- IC50 (PIK3CA (human)): > 10000 nM
- IC50 (PIK3CB (Human)): > 10000 nM
- IC50 (PIK3CG (human)): 100 to 1000 nM

Structure (SMILES): Cc1cccc2cc([C@H](C)Nc3nc(N)ncc3Cl)n(C3CC3)c(=O)c12
- IC50 (PIK3CA (human)): > 10000 nM
- IC50 (PIK3CB (Human)): 100 to 1000 nM
- IC50 (PIK3CD (Human)): < 100 nM
- IC50 (PIK3CG (human)): 100 to 1000 nM

Structure (SMILES): Cc1cccc2cc(Cn3nc(-c4ccc(F)c(O)c4)c4c(N)ncnc43)n(-c3ccccc3F)c(=O)c12
- IC50 (PIK3CA (human)): > 10000 nM
- IC50 (PIK3CB (Human)): > 10000 nM
- IC50 (PIK3CG (human)): 100 to 1000 nM

Structure (SMILES): Cc1cccc(C)c1-n1c(CNc2ncnc3[nH]cnc23)cc2cccc(C)c2c1=O
- IC50 (PIK3CA (human)): > 10000 nM
- IC50 (PIK3CB (Human)): > 10000 nM
- IC50 (PIK3CD (Human)): < 100 nM
- IC50 (PIK3CG (human)): 100 to 1000 nM

Structure (SMILES): Cc1ccccc1-n1c(Cn2nc(-c3cnn(CCO)c3)c3c(N)ncnc32)cc2cccc(C)c2c1=O
- IC50 (PIK3CA (human)): > 10000 nM
- IC50 (PIK3CB (Human)): > 10000 nM
- IC50 (PIK3CG (human)): 100 to 1000 nM

Structure (SMILES): Cc1cccc2cc(Cn3nc(-c4cccc(O)c4)c4c(N)ncnc43)n(-c3ccccc3F)c(=O)c12
- IC50 (PIK3CA (human)): > 10000 nM
- IC50 (PIK3CB (Human)): > 10000 nM
- IC50 (PIK3CG (human)): 100 to 1000 nM

Structure (SMILES): Cc1ccccc1-n1c(Cn2nc(C#CCO)c3c(N)ncnc32)cc2cccc(C)c2c1=O
- IC50 (PIK3CA (human)): > 10000 nM
- IC50 (PIK3CB (Human)): > 10000 nM
- IC50 (PIK3CG (human)): 100 to 1000 nM

Structure (SMILES): Cc1ccccc1-n1c(Cn2nc(C=CC(=O)N3CCOCC3)c3c(N)ncnc32)cc2cccc(C)c2c1=O
- IC50 (PIK3CA (human)): > 10000 nM
- IC50 (PIK3CB (Human)): > 10000 nM
- IC50 (PIK3CD (Human)): 100 to 1000 nM
- IC50 (PIK3CG (human)): > 10000 nM

Structure (SMILES): Cc1cccc2cc(Cn3nc(-c4cc(O)cc(F)c4)c4c(N)ncnc43)n(C(C)C)c(=O)c12
- IC50 (PIK3CB (Human)): 100 to 1000 nM
- IC50 (PIK3CG (human)): 100 to 1000 nM

Structure (SMILES): Cc1cccc2cc(Cn3nc(C=C4CCNC4=O)c4c(N)ncnc43)n(-c3ccccc3F)c(=O)c12
- IC50 (PIK3CA (human)): > 10000 nM
- IC50 (PIK3CB (Human)): > 10000 nM
- IC50 (PIK3CG (human)): > 10000 nM

Structure (SMILES): COc1cccc(-c2nn(Cc3cc4cccc(C)c4c(=O)n3-c3ccccc3C)c3ncnc(N)c23)c1
- IC50 (PIK3CA (human)): > 10000 nM
- IC50 (PIK3CD (Human)): 100 to 1000 nM
- IC50 (PIK3CG (human)): 100 to 1000 nM

Structure (SMILES): Cc1ccccc1-n1c(Cn2nc(-c3cccc(O)c3)c3c(N)ncnc32)cc2ccccc2c1=O
- IC50 (PIK3CA (human)): > 10000 nM
- IC50 (PIK3CG (human)): 100 to 1000 nM

Structure (SMILES): Cc1cccc2cc(Cn3nc(-c4cccc(Cl)c4)c4c(N)ncnc43)n(-c3ccccc3F)c(=O)c12
- IC50 (PIK3CB (Human)): > 10000 nM
- IC50 (PIK3CG (human)): > 10000 nM

Structure (SMILES): Cc1cccc2cc(C(C)Nc3ncnc4[nH]cnc34)n(-c3c(F)cccc3F)c(=O)c12 (configuration not stated)
- IC50 (PIK3CA (human)): > 10000 nM
- IC50 (PIK3CB (Human)): > 10000 nM
- IC50 (PIK3CD (Human)): < 100 nM
- IC50 (PIK3CG (human)): 100 to 1000 nM

Structure (SMILES): Cc1cccnc1-n1c(Cn2nc(-c3cccc(O)c3)c3c(N)ncnc32)cc2cccc(C)c2c1=O
- IC50 (PIK3CA (human)): > 10000 nM
- IC50 (PIK3CB (Human)): > 10000 nM
- IC50 (PIK3CG (human)): 100 to 1000 nM

Structure (SMILES): Cc1ccccc1-n1c(Cn2nc(C(=O)NO)c3c(N)ncnc32)cc2cccc(C)c2c1=O
- IC50 (PIK3CA (human)): > 10000 nM
- IC50 (PIK3CD (Human)): 100 to 1000 nM
- IC50 (PIK3CG (human)): 100 to 1000 nM

Structure (SMILES): Cc1cccc2cc(Cn3nc(C(F)F)c4c(N)ncnc43)n(-c3ccccc3)c(=O)c12
- IC50 (PIK3CA (human)): > 10000 nM
- IC50 (PIK3CD (Human)): < 100 nM
- IC50 (PIK3CG (human)): 100 to 1000 nM

Structure (SMILES): Cc1cccc2cc(Cn3nc(-c4ccc(Cl)c(O)c4)c4c(N)ncnc43)n(C3CCCC3)c(=O)c12
- IC50 (PIK3CD (Human)): 100 to 1000 nM
- IC50 (PIK3CG (human)): 100 to 1000 nM

Structure (SMILES): Cc1cccc2cc(Cn3nc(-c4cccc(O)c4)c4c(N)ncnc43)n(C3CCCC3)c(=O)c12
- IC50 (PIK3CA (human)): > 10000 nM
- IC50 (PIK3CG (human)): 100 to 1000 nM

Structure (SMILES): CC(Nc1ncnc2[nH]cnc12)c1cc2ccccc2c(=O)n1-c1ccccc1 (configuration not stated)
- IC50 (PIK3CA (human)): > 10000 nM
- IC50 (PIK3CD (Human)): < 100 nM
- IC50 (PIK3CG (human)): 100 to 1000 nM

Structure (SMILES): Cc1cccc2cc(Cn3nc(C#C[C@@H](C)O)c4c(N)ncnc43)n(-c3ccccc3Cl)c(=O)c12
- IC50 (PIK3CA (human)): > 10000 nM
- IC50 (PIK3CB (Human)): > 10000 nM
- IC50 (PIK3CG (human)): 100 to 1000 nM

Structure (SMILES): Cc1cccc2cc(C(C)Nc3ncnc4[nH]cnc34)n(-c3cccc(F)c3)c(=O)c12 (configuration not stated)
- IC50 (PIK3CD (Human)): < 100 nM
- IC50 (PIK3CG (human)): 100 to 1000 nM

Structure (SMILES): Cc1ccccc1-n1c(Cn2nc(C(N)=O)c3c(N)ncnc32)cc2cccc(C)c2c1=O
- IC50 (PIK3CA (human)): > 10000 nM
- IC50 (PIK3CD (Human)): 100 to 1000 nM
- IC50 (PIK3CG (human)): 100 to 1000 nM

Structure (SMILES): CCC(Nc1ncnc2[nH]cnc12)c1cc2cccc(C)c2c(=O)n1-c1ccccc1C (configuration not stated)
- IC50 (PIK3CA (human)): > 10000 nM
- IC50 (PIK3CD (Human)): < 100 nM
- IC50 (PIK3CG (human)): 100 to 1000 nM

Structure (SMILES): COc1cc(-c2nn(Cc3cc4cccc(C)c4c(=O)n3-c3ccccc3F)c3ncnc(N)c23)ccc1Cl
- IC50 (PIK3CA (human)): > 10000 nM
- IC50 (PIK3CB (Human)): > 10000 nM
- IC50 (PIK3CG (human)): 100 to 1000 nM
